Reference: patent US20240059729A1, “MULTIFUNCTIONAL CYCLIC DINUCLEOTIDE AND USE THEREOF” (TYLIGAND BIOSCIENCE (SHANGHAI) LIMITED, priority 2020, published 2024)
Counter-ions that a name gives are not always drawn.

Assays:
CT26 cells = assay: Inhibition of proliferation of CT26 cells (CellTiter-Glo); assay type: cell-based, mouse; settings: for IC50: Mus musculus, 120 hours, CellTiter-Glo
Procedure: CT26 cell is a mouse colorectal cancer cell line. This assay used the CellTiter-Glo Luminescence Cell Vitality Assay kit from Promega to evaluate the inhibitory activity of the compounds on the proliferation of CT26 cells.
In thawing the CT26 cells (ATCC #CRL-2638), a cell freezing tube was quickly shaken in a water bath at 37° C. to thaw the cells within 1 min. The thawed cell suspension was taken and evenly mixed with DMEM medium (GE, Cat #SH30243.01) containing 10% FBS (GIBCO, Cat #10099-141), centrifuged for 5 min at 1000 rpm, and the supernatant was discarded. The cell pellet was resuspended in 5 mL of the complete medium (DMEM medium containing 10% FBS), placed into a cell culture flask with a bottom area of 25 cm^2, and incubated in a cell incubator at 37° C., 5% CO2 and 95% humidity. When the cell confluence reached 70%˜80%, the cells were passaged. All the cells in the culture flask were transferred to a 15 mL centrifuge tube, centrifuged for 5 min at 1000 rpm, and the supernatant was discarded. 5 mL of fresh complete medium was added to re-suspend the cell pellet, 1 mL of which was taken to place in a cell culture flask with a bottom area of 25 cm^2, supplemented with 4 mL of fresh complete medium for further incubation. When the cell confluence reached 70%-80% again, plating was conducted following the procedure of cell passage, retaining 1/5 cell suspension for further inculation and remaining 4/5 of the cell suspension in a 15 mL centrifuge tube.
The cell suspension was centrifuged to discard the old culture medium, washed once using DMEM medium (serum-free), and centrifuged to remove the supernatant. The cells were then re-suspended in DMEM medium (serum-free). Cell viability was then detected by Trypan blue exclusion test and to be used for plating when the cell viability was confirmed to be more than 95%. A cell suspension with a density of 1.1×10^4 viable cells/mL was prepared using DMEM medium (serum-free), and 90 μL of the cell suspension was added to a 96-well 96-well transparent flat-bottomed black-walled cell culture plate (Corning, Cat #3603) so that the cell density in the plate was 1000 viable cells/well. A control group containing no cells, no compound, and complete medium only (i.e., a culture medium control), and a control group containing no compound but cells (i.e., a cell control) were set. The cell plates were placed in a cell incubator overnight.
(§1) A 10 mM stock solution of the compounds in DMSO was first serially diluted at 3.16-fold with DMSO (Sigma, Cat #D2650) to the 9th concentration, and the 10th concentration was set as DMSO control (compound-free). Then, the DMSO solutions containing different concentrations of the compounds were diluted at 10-fold with PBS (Solarbio, Cat #P1020) so that the DMSO content in each compound solution of various concentrations was 10%. Finally, 10 μL of each of such solutions was added into corresponding cell culture plate to provide an initial compound concentration of 100 μM, with the dilution fold of adjacent concentrations being 3.16 and the DMSO content in the cell culture plate being 1%. The cell plate was placed in a cell incubator for further 120 hours.
After 120 hours, the CellTiter-Glo reagent (Promega, Cat #G7572) was thawed and the plates were equilibrated at room temperature for 30 min. 100 uL of CellTiter-Glo was added to each well of the plate, and the cells were lysed thoroughly by shaking on an orbital shaker for 5 min. The plates were placed at room temperature for 20 min to stabilize the luminescence signal, and the luminescence value of each well was scanned at full wavelength with a multifunctional microplate reader (Molecular Devices, Spectramax M3). […]

[1] = test system: IFN-β secretion by THP-1 cells; assay: Activation of IFN-β secretion by THP-1 cells (Human IFN-beta ELISA); assay type: cell-based; settings: THP-1 cells, 24 hours, IFN-β ELISA
Procedure: THP-1 cell, a human monocytic leukemia cell line, has the STING phenotype of HAQ type, i.e., R71H-G230A-R293Q. This assay used the Human IFN-beta DuoSet ELISA Kit from R & D (R & D, Cat #DY814-05) and the DuoSet ELISA Ancillary Reagent Kit 2 (R & D, Cat #DY008) to evaluate the activation of IFN-β secretion from THP-1 cells by representative compounds of the invention.
In thawing the THP-1 cells (ATCC #TIB-202), a cell freezing tube was quickly shaken in a water bath at 37° C. to thaw the cells within 1 min. The thawed cell suspension was taken and evenly mixed with an RPMI1640 medium (Hyclone, product #SH30027.01) containing 10% FBS (Life Technology, Cat #10099-141), centrifuged for 5 min at 1000 rpm, and the supernatant was discarded. The cell pellet was resuspended in 5 mL of the complete medium (RPMI 1640 medium containing 10% FBS), placed into a cell culture flask with a bottom area of 25 cm^2, and incubated in a cell incubator at 37° C., 5% CO2 and 95% humidity. When the cell confluence reached about 80%, the cells were passaged. All the cells in the culture flask were transferred to a 15 mL centrifuge tube, centrifuged for 5 min at 1000 rpm, and the supernatant was discarded. 5 mL of fresh complete medium was added to re-suspend the cell pellet, 1 mL of which was taken to place in a cell culture flask with a bottom area of 25 cm^2, supplemented with 4 mL of fresh complete medium for further incubation. When the cell confluence reached about 80% again, plating was conducted following the procedure of cell passage, retaining 1/5 cell suspension for further inculation and remaining 4/5 of the cell suspension in a 15 mL centrifuge tube. The cell suspension was centrifuged to discard the old culture medium, washed once using RPMI1640 culture medium (serum-free), and centrifuged to remove the supernatant. The cells were then re-suspended in RPMI1640 culture medium (serum-free). Cell viability was then detected by Trypan blue exclusion test and to be used for plating when the cell viability was confirmed to be more than 95%. A cell suspension with a density of 1.1×10^6 viable cells/mL was prepared using RPMI1640 culture medium (serum-free), and 180 μL of the cell suspension was added to a 96-well cell culture plate (NUNC Company, Cat #167008) so that the cell density in the plate was 2×10^5 viable cells/well.
as §1, with “the 5th” for “the 9th”, “the 6th” for “the 10th”, “PBS” for “PBS (Solarbio, Cat #P1020)”, “Finally, 20” for “Finally, 10”, “further 24” for “further 120”
ELISA detection was conducted referring to the instructions from R & D System, Cat #DY814-05.
ELISA plate coating: PBS (R & D System Cat #DY006) was used to dilute the capture antibody (mouse anti-human IFN-β capture antibody PART #844508) to provide the working concentration, and 100 μL capture antibody working solution was added to a 96-well ELISA plate which was then sealed and incubated overnight at room temperature. Upon discarding the capture antibody working solution, the cell plate was washed 3 times with a washing buffer (0.05% Tween-20 in PBS, pH 7.2-7.4, R & D System Cat #WA126) at 400 μL of the washing buffer per well, and the washing buffer was thoroughly removed after each washing, with the final washing to be completely removed of the wash buffer by inverting and claping the plate to a clean piece of paper. […]

SMILES	EC50 ([1]; Homo sapiens, THP-1, 24 h) [µM]	also measured
Nc1ccn([C@@H]2O[C@@H]3CO[P@@](=O)(S)OC4[C@@H](CO[P@@](=O)(S)OC3C2(F)F)O[C@@H](n2ccc(N)nc2=O)C4(F)F)c(=O)n1 (stereo partly shown) [Example 3, (3′,3′)-cyclo-(Rp,Rp)-bis-[3′-O-phosphorothioate-diester-2′-deoxy-2′,2′-difluorocytidine]]	–	Inhibitory potency on in vitro growth of CT26 tumor cells (in words) (CT26 cells): particularly significant inhibitory potency; IC50 (CT26 cells): < 1 µM
Nc1nc(Cl)nc2c1ncn2[C@@H]1O[C@@H]2CO[P@@](=O)(S)OC3[C@@H](CO[P@@](=O)(S)O[C@@H]2C1F)O[C@@H](n1cnc2c(N)ncnc21)[C@H]3F (stereo partly drawn) [Example 18, (3′,3′)-cyclo-(Rp,Rp)-[3′-O-phosphorothioate-diester-2′-deoxy-2′-fluoroadenosine]-[3′-O-phosphorothioate-diester-2-chloro-2′-deoxy-2′-fluoro-beta-adenosine]-0.5-ammonium-1.5-1,8-diazabicycloundec-7-ene-salt]	10.1 to 100	–
Nc1nc2c(ncn2[C@@H]2O[C@@H]3CO[P@](=O)(S)OC4C(F)[C@H](n5cnc6c(N)nc(Cl)nc65)O[C@@H]4CO[P@](=O)(S)OC2C3O)c(=O)[nH]1 (stereo partly drawn) [Example 9, (2′,3′)-cyclo-(Sp,Sp)-[2′-O-phosphorothioate-diester-guanosine]-[3′-O-phosphorothioate-diester-2-chloro-2′-deoxy-2′-fluoro-beta-adenosine] diammonium salt]	10.1 to 100	–
Nc1nc2c(ncn2[C@@H]2O[C@@H]3CO[P@@](=O)(S)OC4C(F)[C@H](n5cnc6c(N)nc(Cl)nc65)O[C@@H]4CO[P@](=O)(S)OC2C3O)c(=O)[nH]1 (stereo partly drawn) [Example 8, (2′,3′)-cyclo-(Sp,Rp)-[2′-O-phosphorothioate-diester-guanosine]-[3′-O-phosphorothioate-diester-2-chloro-2′-deoxy-2′-fluoro-beta-adenosine] diammonium salt]	10.1 to 100	–
Nc1ncnc2c1ncn2[C@@H]1O[C@@H]2CO[P@@](=O)(S)OC3C(F)[C@H](n4cnc5c(N)nc(Cl)nc54)O[C@@H]3CO[P@@](=O)(S)OC2C1O (stereo partly drawn) [Example 7, (3′,3′)-cyclo-(Rp,Rp)-[3′-O-phosphorothioate-diester-adenosine]-[3′-O-phosphorothioate-diester-2-chloro-2′-deoxy-2′-fluoro-beta-adenosine] diammonium salt]	–	IC50 (CT26 cells): 1 to 10 µM
Nc1nc2c(ncn2[C@@H]2O[C@@H]3CO[P@@](=O)(S)OC4C[C@H](n5cnc6c(N)nc(Cl)nc65)O[C@@H]4CO[P@@](=O)(S)OC3C2F)c(=O)[nH]1 (stereo partly shown) [Example 21, (3′,3′)-cyclo-(Rp,Rp)-[3′-O-phosphorothioate-diester-2′-deoxy-2′-fluoroguanosine]-[3′-O-phosphorothioate-diester-2-chloro-2′-deoxyadenosine] diammonium salt]	10.1 to 100	–
Nc1nc(Cl)nc2c1ncn2[C@@H]1O[C@H](CO)[C@@H](O)[C@@H]1F [Clofarabine—, clofarabine, reference compound]	–	IC50 (CT26 cells): < 1 µM
Nc1nc2c(ncn2[C@@H]2O[C@@H]3CO[P@@](=O)(S)OC4C(F)[C@H](n5cnc6c(N)nc(Cl)nc65)O[C@@H]4CO[P@](=O)(S)OC3C2O)c(=O)[nH]1 (stereo partly drawn) [Example 15, (3′,3′)-cyclo-(Sp,Rp)-[3′-O-phosphorothioate-diester-guanosine]-[3′-O-phosphorothioate-diester-2-chloro-2′-deoxy-2′-fluoro-beta-adenosine] diammonium salt]	–	EC50 ([1]; diammonium salt): 10.1 to 100 µM
Nc1nc2c(ncn2[C@@H]2O[C@@H]3COP(=O)(O)O[C@H]4[C@@H](O)[C@H](n5cnc6c(N)ncnc65)O[C@@H]4COP(=O)(O)O[C@@H]2[C@@H]3O)c(=O)[nH]1 [2′,3′-cGAMP, cGAMP, reference compound]	–	EC50 [1]: 10.1 to 100 µM
CNc1nc(N)c2ncn([C@@H]3O[C@@H]4CO[P@@](=O)(S)O[C@H]5C(O)[C@@H](CO[P@@](=O)(S)O[C@@H]4C3F)O[C@H]5n3cnc4c(=O)[nH]c(N)nc43)c2n1 (stereo partly drawn) [Example 26, (2′,3′)-cyclo-(Rp,Rp)-[2′-O-phosphorothioate-diester-guanosine]-[3′-O-phosphorothioate-diester-2-methylamino-2′-deoxy-2′-fluoro-beta-adenosine] diammonium salt]	1 to 10	–
Nc1nc2c(ncn2[C@@H]2O[C@@H]3CO[P@@](=O)(S)OC4C[C@H](n5cnc6c(N)nc(Cl)nc65)O[C@@H]4CO[P@](=O)(S)OC2C3O)c(=O)[nH]1 (stereo partly shown) [Example 11, (2′,3′)-cyclo-(Sp,Rp)-[2′-O-phosphorothioate-diester-guanosine]-[3′-O-phosphorothioate-diester-2-chloro-2′-deoxy-adenosine] diammonium salt]	10.1 to 100	–
Nc1ncnc2c1ncn2[C@@H]1O[C@@H]2CO[P@@](=O)(S)O[C@@H]3C[C@H](n4cnc5c(N)nc(Cl)nc54)O[C@@H]3CO[P@@](=O)(S)OC2[C@@H]1F (stereo partly shown) [Example 19, (3′,3′)-cyclo-(Rp,Rp)-[3′-O-phosphorothioate-diester-2′-deoxy-2′-fluoroadenosine]-[3′-O-phosphorothioate-diester-2-chloro-2′-deoxyadenosine] 0.5-1,8-diazabicycloundec-7-ene-salt]	10.1 to 100	–
